Read-outs that look alike come from different tables or passages of the source.
Tests used:
P. falciparum 3D7-yDHODH = experiment: Growth inhibition of yeast DHODH-expressing strain; format: cell-based; details: Plasmodium falciparum, 3D7, read-out: Growth inhibition EC50, 3D7-yDHODH
Method: P. falciparum 3D7-yDHODH was prepared and maintained as described previously. P. falciparum Dd2, and Dd2-derived mutant strains were kindly provided by David A. Fidock, and maintained at Nagasaki University essentially as described in reference, except without supplementation with WR99210.
(§1) Synchronized ring-form parasites (0.3% parasitemia) were prepared in complete medium containing different concentration of various compounds (at a fixed final DMSO concentration of 0.1% (v/v)) and distributed to 96-well plates at 100 μL/well. After 72 h of incubation, parasite growth was monitored by the previously described lactate dehydrogenase (PfLDH)-based assay method; plates were read using a SpectraMax® Paradigm spectrophotometer (Molecular Devices, Inc.; San Jose, CA, USA). EC50 values were calculated using Prism® ver.6.01 (GraphPad; San Diego, CA, USA). Values are presented as the means of three independent experiments.

P. falciparum 3D7 = experiment: Drug sensitivity assay, 72 h, PfLDH-based; format: cell-based; details: Plasmodium falciparum, 3D7; Figure 6b; read-out: Growth inhibition EC50, 3D7
Method: The P. falciparum 3D7 strain was cultured, as described previously, in 3% hematocrit type A human red blood cells (RBCs) in RPMI1640 medium (Invitrogen; San Diego, CA, USA) supplemented with 25 mM sodium hydrogen biocarbonate, 10 μg/mL hypoxanthine, 40 μg/mL gentamicin sulfate, and 0.5% (w/v) Albumax II (Invitrogen) (“complete medium”). Cultures were maintained in a MG-70M multi-gas incubator (Taitec) under the conditions of 5% O2, 5% CO2, and 90% N2 at 37 °C. The medium was replaced daily. Parasitemia was measured by thin blood smears stained with Giemsa. In our previous study, we generated mutant P. falciparum strains expressing either disrupted or full-length versions of the flavoprotein (Fp) subunit (encoded by the Pfsdha gene). Both strains were cultured in complete medium at 3% hematocrit supplemented with 5 nM WR99210 (Jacobus Pharmaceuticals; Plainsboro, NJ, USA). The experiments using human RBCs were performed under the guidelines of Research Ethics Committee of the Faculty of Medicine of the University of Tokyo and Institutional Review Board (IRB) of Nagasaki University (Permission nos. 10050 and no. 19, respectively). Human RBCs were obtained from The Japanese Red Cross Society. The synchronization of parasite cultures was performed by treating with 5% (w/v) sorbitol for 10 min [77].
as §1

[1] = system: Plasmodium spp. complex II; details: cited from earlier work; for Effect on Plasmodium mitochondrial complex II: classical ubiquinone-site inhibitors, ref [30], [14]
[2] = system: Plasmodium spp. complex II; experiment: Plasmodium spp. complex II inhibition (literature values); format: biochemical; details: ratio between mammalian and Plasmodium complex II IC50s
Source text: Table 1 Selectivity of classical complex II inhibitor against Plasmodium spp. and mammal complex II. | column: Selectivity ^a

Mammal complex II = details: read-out: Complex II IC50, Mammal, cited from earlier work

| SMILES | EC50 (P. falciparum 3D7-yDHODH) [µM] | EC50 (P. falciparum 3D7) [µM] | Effect on Plasmodium mitochondrial complex II [1] | IC50 ([1]; ref Kawahara et al. [14]) [µM] | Selectivity [2] | IC50 (Mammal complex II; ref Miyadera et al. [29]) [µM] | IC50 ([1]; ref Suraveratum et al. [30]) [µM] | IC50 (Mammal complex II; ref Mogi et al. [34]) [µM] |
| --- | --- | --- | --- | --- | --- | --- | --- | --- |
| O=C1C(O)=C([C@H]2CC[C@H](c3ccc(Cl)cc3)CC2)C(=O)c2ccccc21 [Atovaquone] | > 0.1 | 0.00056 |  |  |  |  |  |  |
| CC1=C(C(=O)Nc2ccccc2)SCCO1 [Carboxin] |  |  | ineffective | 3.6 ± 1 | 0.28 | 1 |  |  |
| O=C(CC(=O)C(F)(F)F)c1cccs1 [TTFA, 2-thenoyltrifluoroacetone] |  |  | ineffective |  | <0.11 | 5.4 | > 50 |  |
| O=C(O)CC(=O)O [Malonate] |  |  |  |  | 0.26 |  | 13.2 ± 0.49 | 3.4 |
| COc1[nH]c(=O)c(C(=O)[C@@H](C)C[C@H](C)[C@@H](Cl)CCl)c(O)c1OC [Atpenin A5] |  |  | ineffective | 4.6 ± 0.2 | 0.00087 | 0.004 |  |  |
